Results as given in ChEMBL document CHEMBL3421550, “Diphenylpyrazoles as replication protein a inhibitors” (ACS Med Chem Lett, 2015).

Tests used:
[1] = biological target: T1, Replication protein A 70 kDa DNA-binding subunit (Homo sapiens, UniProt P27694)
Description: Binding affinity to RPA70N protein (unknown origin) incubated for 1 hr using FITC-ATRIP/FITC-ATRIP2 peptide probe by fluorescence polarization anisotropy assay

[2] = biological target: T1, Replication protein A 70 kDa DNA-binding subunit; details: at 500 µM
Description: Displacement of FITC-ATRIP/FITC-ATRIP2 peptide probe from RPA70N protein (unknown origin) at 500 uM incubated for 1 hr by fluorescence polarization anisotropy assay

[3] = biological target: T1, Replication protein A 70 kDa DNA-binding subunit; experiment: Binding affinity to RPA70N protein (unknown origin) by HSQC NMR-based titration method
[4] = Intrinsic permeability in human Caco2 cells; format: ADME, cell-based; details: Caco-2, read-out: permeability

T1 sequence (P27694 whole entry): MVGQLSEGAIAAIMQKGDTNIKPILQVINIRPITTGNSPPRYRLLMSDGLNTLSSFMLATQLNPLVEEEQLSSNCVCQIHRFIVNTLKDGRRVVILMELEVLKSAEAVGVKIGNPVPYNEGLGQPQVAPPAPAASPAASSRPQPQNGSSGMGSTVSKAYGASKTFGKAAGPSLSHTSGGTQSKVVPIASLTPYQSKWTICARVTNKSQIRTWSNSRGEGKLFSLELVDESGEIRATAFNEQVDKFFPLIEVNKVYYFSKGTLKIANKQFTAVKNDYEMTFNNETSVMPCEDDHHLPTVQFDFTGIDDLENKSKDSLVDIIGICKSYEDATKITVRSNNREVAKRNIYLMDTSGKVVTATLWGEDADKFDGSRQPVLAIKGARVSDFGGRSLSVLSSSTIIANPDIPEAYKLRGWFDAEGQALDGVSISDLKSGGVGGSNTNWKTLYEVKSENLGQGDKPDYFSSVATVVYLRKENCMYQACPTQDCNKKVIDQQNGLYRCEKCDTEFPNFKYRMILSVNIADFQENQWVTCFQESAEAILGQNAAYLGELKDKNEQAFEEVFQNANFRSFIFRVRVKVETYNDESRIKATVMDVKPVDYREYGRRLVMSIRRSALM

SMILES | Kd [1] [µM] | other results
O=C(O)c1cc(-c2ccc(CNC(=S)c3ccc(-c4nc(=O)o[nH]4)cc3)cc2)n(-c2ccc(Cl)c(Cl)c2)n1 | 9.3 | –
O=C(O)c1cc(-c2ccccc2)n(-c2ccc(Cl)c(Cl)c2)n1 | 123 | –
COc1ccc(-c2cc(C(=O)O)nn2-c2ccc(C)cc2)cc1 | > 500 | inhibition [2]: 15%
O=C(O)c1cc(-c2ccc(CNC(=S)c3ccc(-c4nnn[nH]4)cc3)cc2)n(-c2ccc(Cl)c(Cl)c2)n1 | 2.2 | –
COc1ccc(C(=O)NCc2ccc(-c3cc(C(=O)O)nn3-c3ccc(Cl)c(Cl)c3)cc2)cc1 | 72 | –
N#Cc1ccc(-c2cc(C(=O)O)nn2-c2ccc(Cl)c(Cl)c2)cc1 | 310 | –
Cc1cccc(-c2cc(C(=O)O)nn2-c2ccc(Cl)c(Cl)c2)c1 | 90 | –
COc1ccc(CNC(=O)c2ccc(-c3cc(C(=O)O)nn3-c3ccc(Cl)c(Cl)c3)cc2)cc1 | 45 | –
COc1ccc(-c2cc(C(=O)O)nn2-c2ccc(Cl)c(Cl)c2)cc1 | 79 | –
Nc1ccc(-c2cc(C(=O)O)nn2-c2ccc(Cl)c(Cl)c2)cc1 | 227 | –
O=C(O)c1cc(-c2ccc(C(=S)NCc3ccccc3)cc2)n(-c2ccc(Cl)c(Cl)c2)n1 | 18 | –
O=C(O)c1ccc(-c2cc(C(=O)O)nn2-c2ccc(Cl)c(Cl)c2)cc1 | 59 | –
Cc1ccc(-c2cc(C(=O)O)nn2-c2ccc(Cl)c(Cl)c2)cc1 | 72 | –
O=C(O)c1cc(-c2ccc(CNC(=S)c3ccc(-c4ccc(C(=O)O)o4)cc3)cc2)n(-c2ccc(Cl)c(Cl)c2)n1 | 0.55 | –
O=C(O)c1cc(-c2ccc(CNC(=S)c3ccc(Br)cc3)cc2)n(-c2ccc(Cl)c(Cl)c2)n1 | 15 | –
O=C(O)c1cc(-c2ccc(C(=S)NCc3ccc(-c4ccc(C(=O)O)o4)cc3)cc2)n(-c2ccc(Cl)c(Cl)c2)n1 | 1.5 | –
O=C(O)c1cc(-c2ccc(C(=S)NCc3cccc(-c4ccc(C(=O)O)o4)c3)cc2)n(-c2ccc(Cl)c(Cl)c2)n1 | 2.5 | –
O=C(NCc1ccc(-c2cc(C(=O)O)nn2-c2ccc(Cl)c(Cl)c2)cc1)c1ccccc1 | 90 | –
COc1ccc(-c2cc(C(=O)O)nn2-c2ccc(Br)cc2)cc1 | > 500 | inhibition [2]: 24%
O=C(O)c1cc(-c2ccc(Cl)cc2)n(-c2ccc(Cl)c(Cl)c2)n1 | 67 | Kd [3]: 54 µM
Cc1cccc(-n2nc(C(=O)O)cc2-c2ccccc2)c1 | > 500 | Kd [3]: 580 µM
O=C(O)c1cc(-c2ccc(CNS(=O)(=O)c3ccccc3)cc2)n(-c2ccc(Cl)c(Cl)c2)n1 | 70 | –
COc1ccc(-n2nc(C(=O)O)cc2-c2ccccc2)cc1 | > 500 | inhibition [2]: 18%; Kd [3]: 895 µM

SMILES | Kd [1] [µM] | other results
O=C(O)c1cc(-c2cccc(CNCc3ccc(-c4ccc(C(=O)O)o4)cc3)c2)n(-c2ccc(Cl)c(Cl)c2)n1 | 57 | –
O=C(NCc1ccccc1)c1ccc(-c2cc(C(=O)O)nn2-c2ccc(Cl)c(Cl)c2)cc1 | 83 | –
O=C(O)c1cc(-c2ccc(O)cc2)n(-c2ccc(Cl)c(Cl)c2)n1 | 104 | –
O=C(O)c1cc(-c2ccccc2)n(-c2ccccc2)n1 | – | Kd [3]: 1150 µM
O=C(NCc1ccc(-c2cc(C(=O)O)nn2-c2ccc(Cl)c(Cl)c2)cc1)c1ccc(Br)cc1 | 35 | –
O=C(O)c1ccc(-c2ccc(C(=S)NCc3ccc(-c4ccnn4-c4ccc(Cl)c(Cl)c4)cc3)c(Cl)c2)o1 | 1.7 | Papp [4]: 14.5 ×10⁻⁶ cm/s
COc1ccc(-c2cc(C(=O)O)nn2-c2ccc(Cl)cc2)cc1 | > 500 | inhibition [2]: 19%
O=C(NCc1ccc(-c2ccc(C(=O)O)o2)cc1)c1cccc(-c2cc(C(=O)O)nn2-c2ccc(Cl)c(Cl)c2)c1 | 22 | –
O=C(O)c1cc(-c2ccc(CN3CCc4cc(-c5ccc(C(=O)O)o5)ccc4C3=S)cc2)n(-c2ccc(Cl)c(Cl)c2)n1 | 0.54 | –
COc1ccc(CNC(=S)c2ccc(-c3cc(C(=O)O)nn3-c3ccc(Cl)c(Cl)c3)cc2)cc1 | 23 | –
O=C(O)c1cc(-c2ccco2)n(-c2ccc(Cl)c(Cl)c2)n1 | > 500 | –
CC(=O)N(Cc1ccc(-c2ccc(C(=O)O)o2)cc1)Cc1cccc(-c2cc(C(=O)O)nn2-c2ccc(Cl)c(Cl)c2)c1 | 8.2 | –
NCc1ccc(-c2cc(C(=O)O)nn2-c2ccc(Cl)c(Cl)c2)cc1 | > 500 | –
COc1ccc(-c2cc(C(=O)O)nn2-c2cccc(Br)c2)cc1 | 140 | –
COc1ccc(-c2cc(C(=O)O)nn2C2CCCCC2)cc1 | > 500 | inhibition [2]: 9%
O=C(O)c1cc(Cc2ccc(O)cc2)n(-c2ccc(Cl)c(Cl)c2)n1 | > 500 | –
O=C(O)c1cc(-c2ccc(CNS(=O)(=O)c3ccc(OC(F)(F)F)cc3)cc2)n(-c2ccc(Cl)c(Cl)c2)n1 | 56 | –
NS(=O)(=O)c1ccc(C(=S)NCc2ccc(-c3cc(C(=O)O)nn3-c3ccc(Cl)c(Cl)c3)cc2)cc1 | 34 | –
COc1ccc(-c2cc(C(=O)O)nn2-c2cccc(C)c2)cc1 | > 500 | inhibition [2]: 20%
O=C(O)c1cccc(-c2cc(C(=O)O)nn2-c2ccc(Cl)c(Cl)c2)c1 | 129 | –
O=C(O)c1cc(-c2ccc(C(=S)NCc3ccc(-c4ccc(C(=O)O)o4)cc3Cl)cc2)n(-c2ccc(Cl)c(Cl)c2)n1 | 0.48 | –
COc1ccc(-c2cc(C(=O)O)nn2-c2cccc(Cl)c2)cc1 | > 500 | inhibition [2]: 35%
O=C(NCc1ccc(-c2ccc(C(=O)O)o2)cc1Cl)c1ccc(-c2cc(C(=O)O)nn2-c2ccc(Cl)c(Cl)c2)cc1 | 9.4 | –
